Source: ChEMBL document CHEMBL4482306, “Methods for inhibiting fascin” (2014)
Calls of active or inactive are those of the source. The calls are words filed in the database; no cut-off is given here.

Legend:
4T1 [1] = assay: Antimigratory activity against mouse 4T1 cells assessed as inhibition of cell migration incubated for 6 hrs by crystal violet staining based Boyden-Chamber cell migration assay; type: functional; details: 4T1, 6 h
4T1 [2] = assay: Antitumor activity against mouse 4T1 cells implanted in Balb/c mouse mouse assessed as inhibition of breast tumor metastasis at 8 mg/kg dosed daily for 2 weeks starting 7 days post tumor cell implantation and measured on day 28 by 6-thioguanine clonogenic assay; type: functional, organism-based
Fascin (Homo sapiens) = Fascin (Homo sapiens) (UniProt Q16658); assay: Inhibition of GST-tagged recombinant human fascin 1 expressed in Escherichia coli BL21/DE3 assessed as average fiber thickness at 30 uM pre-incubated for 30 mins before polymerized actin addition and followed by Alexa fluro 488 phalloidin addition and measured after 1 hr under dark condition (reference value: 0.39 a.u)
4T1 [3] = assay: Antitumor activity against mouse 4T1 cells implanted in Balb/c mouse mouse assessed as inhibition of breast tumor metastasis at 30 mg/kg dosed daily for 2 weeks starting 7 days post tumor cell implantation and measured on day 28 by 6-thioguanine clonogenic assay; type: functional, organism-based

Structure (SMILES)	IC50 (4T1 [1])	other results
O=C1C(Sc2nc[nH]n2)=C/C(=N/S(=O)(=O)c2ccccc2)c2ccccc21	> 30 µM	
CCOc1ccc(S(=O)(=O)Nc2cc(Sc3nc[nH]n3)c(O)c3ccccc23)cc1	> 20 µM	
c1ccc(Nc2nc(-c3ccccc3)[n+](-c3ccccc3)s2)cc1	> 50 µM	
O=[N+]([O-])c1ccc(Cl)c(S(=O)(=O)Nc2nc3ccc(Cl)cc3s2)c1		inhibition (4T1 [2]): Active; Activity (Fascin (Homo sapiens)): 0.35 a.u.
COc1ccc(S(=O)(=O)Nc2cc(Sc3nc[nH]n3)c(O)c3ccccc23)cc1		inhibition (4T1 [3]): Active
Cc1ccc(S(=O)(=O)Nc2cc(Sc3nc[nH]n3)c(O)c3ccccc23)c(C)c1	> 30 µM	
